Experiments:
Experiment in all cases: Cell viability of GBM cells exposed to WNT974
[1] = tested on: GL42 cells (WNT6-positive GBM); type: cell-based
Experimental: (§1) FIG. 13. WNT6-positive GBM cell lines are more sensitive to WNT974 (an inhibitor of the WNT pathway) than a WNT6-negative GBM cell line. A. GBM cells positive to WNT6 (U373, […], and GL42) and negative to WNT6 (U87) were exposed to increasing doses of WNT974 (0, 10, 20, or 30 μM). The viability of U87 cells (WNT6-negative) was not affected by WNT inhibition, in contrast to WNT6-positive GBM cells (U373, SNB19, and GL42) that are highly-sensitive. B. Cells were exposed to increasing doses of WNT974 (0, 10, 20, or 30 μM) and to a fixed dose of TMZ (temozolomide, the gold standard chemotherapeutic drug used for GBM patients; U373: 400 μM; SNB19: 800 μM; GL42: 200 μM; U87: 800 μM).

[2] = tested on: U87 cells (WNT6-negative GBM); type: cell-based, human
Experimental: as §1

[3] = tested on: U373 cells (WNT6-positive GBM); type: cell-based, human
Experimental: as §1

[4] = tested on: SNB19 cells (WNT6-positive GBM); type: cell-based, human
Experimental: as §1

Q: For `Cc1cc(-c2ncc(CC(=O)Nc3ccc(-c4cnccn4)cn3)cc2C)ccn1` [WNT974], which “cell viability, sensitivity to WNT inhibition” value ([1]; GL42 (WNT6-positive), WNT974 0, 10, 20, or 30 μM) is on record?
A: The value was “highly-sensitive”.

Q: And the “cell viability, sensitivity to combinatorial therapy” value ([1]; GL42, WNT974 0, 10, 20, or 30 μM plus fixed dose TMZ 200 μM)?
A: The value was “higher sensitivity”.

Q: What about the “cell viability, sensitivity to WNT inhibition” value ([2]; U87 (WNT6-negative), WNT974 0, 10, 20, or 30 μM) of the same compound?
A: The value was “not affected”.

Q: And the “cell viability, sensitivity to combinatorial therapy” value ([2]; U87, WNT974 0, 10, 20, or 30 μM plus fixed dose TMZ 800 μM)?
A: Its value is “no effect”.

Q: What about the “cell viability, sensitivity to WNT inhibition” value ([3]; U373 (WNT6-positive), WNT974 0, 10, 20, or 30 μM) of the same compound?
A: Its value is “highly-sensitive”.

Q: What about the “cell viability, sensitivity to combinatorial therapy” value ([3]; U373, WNT974 0, 10, 20, or 30 μM plus fixed dose TMZ 400 μM) of the same compound?
A: The value was “higher sensitivity”.

Q: And the “cell viability, sensitivity to WNT inhibition” value ([4]; SNB19 (WNT6-positive), WNT974 0, 10, 20, or 30 μM)?
A: The value was “highly-sensitive”.

Q: What about the “cell viability, sensitivity to combinatorial therapy” value ([4]; SNB19, WNT974 0, 10, 20, or 30 μM plus fixed dose TMZ 800 μM) of the same compound?
A: Its value is “higher sensitivity”.
